As usually defined, the IC50 is the midpoint of a concentration-inhibition curve. Low values mean higher potency, high ones lower potency. Broadly, the Vmax is the top rate of the reaction or transport when substrate is in excess.

The text below walks through data of paper PMC6366418, “Evaluation of a flavonoids library for inhibition of pancreatic α-amylase towards a structure–activity relationship” (Journal of Enzyme Inhibition and Medicinal Chemistry, 2019).

Entries after “also recorded” stand apart in the source; their conditions may differ. Like-named read-outs stand apart in the source and are kept apart here.

Assay [1] has as its target T1, porcine pancreatic α-amylase (Sus scrofa, UniProt P00690).
T1 construct: α-Amylase from porcine pancreas; purchased Sigma-Aldrich Co. LLC (St. Louis, MO); host or cells: porcine pancreas (tissue-derived commercial preparation)
T1 sequence (P00690 16-511): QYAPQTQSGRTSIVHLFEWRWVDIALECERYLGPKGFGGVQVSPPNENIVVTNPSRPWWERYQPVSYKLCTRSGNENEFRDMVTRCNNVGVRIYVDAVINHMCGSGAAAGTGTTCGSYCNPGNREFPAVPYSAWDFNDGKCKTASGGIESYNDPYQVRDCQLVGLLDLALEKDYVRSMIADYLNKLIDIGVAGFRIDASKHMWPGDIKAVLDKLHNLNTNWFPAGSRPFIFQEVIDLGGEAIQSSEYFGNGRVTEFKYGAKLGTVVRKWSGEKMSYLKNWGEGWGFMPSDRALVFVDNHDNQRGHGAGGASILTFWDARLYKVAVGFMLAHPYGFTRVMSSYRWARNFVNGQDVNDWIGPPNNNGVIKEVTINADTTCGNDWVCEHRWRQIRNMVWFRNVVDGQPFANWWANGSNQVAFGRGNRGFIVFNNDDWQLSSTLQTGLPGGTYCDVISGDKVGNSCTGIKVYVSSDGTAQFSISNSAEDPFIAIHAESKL
The assay is described as follows: In vitro pancreatic α-amylase inhibition assay (CNPG3 substrate, 405 nm).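 As to all read-outs here: enzyme rate taken from the absorbance slope between 5 and 30 min of CNPG3 hydrolysis, inhibition derived from these rates, at least three independent experiments.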 The assay is classed as biochemical. Particulars: for IC50: enzyme 0.2 U/mL, CNPG3 0.5 mM, pH 6.8, 37 °C; for Inhibition of α-amylase activity (in words): up to the highest tested concentration (200 µM).

Another assay concerns α-amylase. The arrangement: method as in Kim et al.[55] and Yoon and Robyt,[52]. Particulars: ref Kim et al.[55] and Yoon and Robyt,[52]; cited from earlier work.
Assay [2] concerns the target T2, α-amylase from porcine pancreas (Sus scrofa, UniProt P00690).
T2 construct: α-Amylase from porcine pancreas; purchased Sigma-Aldrich Co. LLC (St. Louis, MO); host or cells: porcine pancreas (tissue-derived commercial preparation)
T2 sequence (P00690 16-511): T1 sequence (P00690 16-511)
Kind of assay: Inhibitory kinetics of α-amylase (nonlinear regression, Excel Solver). The assay is classed as biochemical. Particulars: for Type of inhibition: CNPG3 0.25, 0.5 and 1 mM, best model by F test and AIC; for Vmax: best model; for V max (Solver fit): rate axis DA/min.

The target in assay [3] is T1, porcine pancreatic α-amylase. On the set-up: method as in Tadera et al.,[21]. Particulars: highest tested concentration of 0.5 mM; ref Tadera et al.,[21]; cited from earlier work.
Where [4] appears, read: 200 µM, mean ± SEM, read-out: Inhibition (%) at the highest tested concentration.
The mark [5] stands for this setting: competitive inhibition constant, ± SD (jackknife), read-out: Kic.
Setting [6] is: supplement, competitive inhibition model.
Where [7] appears, read: supplement, competitive inhibition model, read-out: K ic (Solver fit).

Take `O=c1cc(-c2ccc(O)c(O)c2)oc2ccccc12` [A4]: the inhibition at 200 µM in assay [1] (setting [4]) turned out to be 46 ± 2%.
Same read-out and setting: the same measure for `O=c1cc(-c2ccccc2)oc2ccccc12` [A1, Flavone]: under 20%.
As for `O=c1c(O)c(-c2ccc(O)cc2)oc2cc(O)cc(O)c12` [D6, Kaempferol], in assay [1] (mean ± SEM), it took 118 ± 7 µM to reach half-maximal inhibition (IC50).
As to `O=c1cc(-c2cccc(O)c2)oc2cc(O)ccc12` [C2], in assay [1] (setting [4]), the inhibition at 200 µM was found to be 28 ± 3%.
On the same count and under the same terms, the figure for `O=c1cc(-c2ccc(O)cc2)oc2cccc(O)c12` [B3] is under 20%.
Turning to `O=c1c(O)c(-c2cc(O)c(O)c(O)c2)oc2cc(O)cc(O)c12` [D9, Myricetin], 107 ± 6 µM corresponded to half-maximal inhibition in assay [1] (mean ± SEM) (IC50).
`O=C1C[C@@H](c2ccc(O)c(O)c2)Oc2cc(O)cc(O)c21` [E2, Eriodictyol]: in assay [1] (setting [4]), the inhibition at 200 µM was under 20%. Also, in assay [1], the “Inhibition of α-amylase activity (in words)” value is recorded as “not able to inhibit”.
For `O=c1cc(-c2ccccc2)oc2cccc(O)c12` [B1], in assay [1] (setting [4]), the inhibition at 200 µM is under 2%.
On to `O=C1c2c(O)cc(O)cc2OC(c2ccc(O)c(O)c2)C1O` (stereo not drawn) [E3, Taxifolin], for which the inhibition at 200 µM in assay [1] (setting [4]) was under 20%. For the same molecule, in assay [1], the “Inhibition of α-amylase activity (in words)” value is “not able to inhibit”.
Turning to `O=c1cc(-c2cccc(O)c2)oc2cccc(O)c12` [B2], the inhibition at 200 µM in assay [1] (setting [4]) is under 20%.
Consider `COc1ccc(-c2oc3cc(OC)ccc3c(=O)c2O)cc1` [C8], for which the inhibition at 100 µM in assay [1] (100 µM, mean ± SEM, read-out: Inhibition (%) at the highest tested concentration) was under 20%. Moreover, in assay [1], the “Inhibition of α-amylase activity (in words)” value was “remained unchanged; also recorded: no inhibitory activity”.
`COc1cccc(-c2oc3cc(OC)ccc3c(=O)c2O)c1` [C7]: the inhibition at 200 µM in assay [1] (setting [4]) is under 20%. Further, in assay [1], the “Inhibition of α-amylase activity (in words)” value was “remained unchanged; also recorded: no inhibitory activity”.
Turning to `COc1ccc(-c2cc(=O)c3c(O)cc(O)cc3o2)cc1OC` [D18], the inhibition at 200 µM in assay [1] (setting [4]) turned out to be 33 ± 3%.
Still for that read-out and setting: the figure for `O=c1cc(-c2cccc(O)c2)oc2ccccc12` [A2] is under 20%; for `O=c1cc(-c2ccc(O)cc2)oc2ccccc12` [A3] it is under 20%.
For `O=c1cc(-c2ccccc2)oc2cc(O)ccc12` [C1], in assay [1] (read-out: Inhibition (%) at the highest tested concentration), the inhibition at 200 µM is under 20%.
In the case of `C[C@@H]1O[C@@H](OC[C@H]2O[C@@H](Oc3c(-c4ccc(O)c(O)c4)oc4cc(O)cc(O)c4c3=O)[C@H](O)[C@@H](O)[C@@H]2O)[C@H](O)[C@H](O)[C@H]1O` [D19, Rutin], the inhibition at 200 µM in assay [1] (setting [4]) was under 20%. Also, the “Inhibition of α-amylase activity (in words)” value in assay [1] is “no activity was found”.
On to Morin [D10], for which, in assay [1] (200 µM, mean ± SEM), the “Inhibition (%) at the highest tested concentration” value is on record as 23 ± 1 %^200µM*.
Take `O=c1c(O)c(-c2cccc(O)c2)oc2cc(O)ccc12` [C4]: in assay [1] (setting [4]), the inhibition at 200 µM turned out to be 34 ± 3%. In addition, the “Inhibition of α-amylase activity (in words)” value in assay [1] was “low activity”.
For the molecule `O=c1cc(-c2ccc(O)c(O)c2)oc2cc(O)cc(O)c12` [D7, Luteolin], the “Decrease of inhibitory activity / increase of IC50 compared with D11” value in assay [1] (fold, relative to D11) is on record as “two-fold”. In assay [1] (mean ± SEM), this molecule yielded a concentration for half-maximal inhibition (IC50) of 78 ± 3 µM.
Molecule `O=c1cc(-c2cccc(O)c2)oc2cc(O)cc(O)c12` [D4] showed an IC50 in assay [1] (mean ± SEM) of about 200 µM.
As to `COc1ccc(-c2oc3ccccc3c(=O)c2O)cc1OC` [A6], the inhibition at 200 µM in assay [1] (setting [4]) was under 20%.
Take Acacetin [D17]: the “Inhibition (%) at the highest tested concentration” value in assay [1] (200 µM, mean ± SEM) is recorded as under 20%^200 µM*.
With `C[C@H]1O[C@H](O[C@H]2[C@H](O)[C@@H](O)[C@@H](O[C@H]3[C@H](O)[C@@H](O)C(O)O[C@@H]3CO)O[C@@H]2CO)[C@H](O)[C@@H](O)[C@@H]1N[C@H]1C=C(CO)[C@@H](O)[C@H](O)[C@H]1O` (stereo partly drawn) [Acarbose, reference compound], the Type of inhibition result in the assay with α-amylase is recorded as “mixed type inhibitor”; in assay [2], “Mixed”; in assay [2] (listed as acarbose), “mixed-type inhibitor; also recorded: mixed-type inhibition”. Moreover, the maximal velocity (Vmax) in assay [2] (± SD (jackknife)) was 12.0 ± 0.9 µmol/min. Further, in assay [2] (supplement, mixed inhibition model), the “V max (Solver fit)” value is on record as 39,76745004.
As to `O=c1c(O)c(-c2ccc(O)c(O)c2)oc2ccccc12` [A5], in assay [1] (setting [4]), the inhibition at 200 µM turned out to be 31 ± 3%.
On to `O=c1c(O)c(-c2ccc(O)cc2)oc2cc(O)ccc12` [C5], for which inhibition in assay [1] (mean ± SEM) was half-maximal at 59 ± 4 µM (IC50). Also, the Type of inhibition result in assay [2] is “competitive inhibitors; also recorded: competitive inhibition”. Besides, in assay [2] (± SD (jackknife)), the maximal velocity (Vmax) stood at 10.5 ± 0.9 µmol/min. Moreover, the Ki in assay [2] (setting [5]) came out at 71 ± 7 µM. In assay [2] (setting [6]), the “K m (Solver fit)” value is on record as 0,9963 mM and the “V max (Solver fit)” value is 35,186. Further, in assay [2] (setting [7]), the Ki was found to be 71.4 µM.
Consider `O=C1C[C@@H](c2ccc(O)cc2)Oc2cc(O)cc(O)c21` [E1, Naringenin], for which, in assay [3], the “Inhibition of porcine pancreatic α-amylase activity (in words)” value is given as “not able to inhibit”. In addition, in assay [1] (setting [4]), the inhibition at 200 µM was under 20%. In addition, the “Inhibition of α-amylase activity (in words)” value in assay [1] is “not able to inhibit”.
Turning to `O=c1cc(-c2ccccc2)oc2cc(O)cc(O)c12` [D1, Chrysin], the inhibition at 200 µM in assay [1] (setting [4]) was 22 ± 3%.
`O=c1c(O)c(-c2ccccc2)oc2cc(O)cc(O)c12` [D2, Galangin]: the inhibition at 200 µM in assay [1] (setting [4]) is under 20%.
On to `O=c1cc(-c2ccc(O)cc2)oc2cc(O)ccc12` [C3], for which the inhibition at 200 µM in assay [1] (setting [4]) was 36 ± 3%. Besides, in assay [1], the “Inhibition of α-amylase activity (in words)” value is “lack of inhibitory activity”.
Molecule `O=c1cc(-c2ccc(O)c(O)c2)oc2cccc(O)c12` [B4] yielded an IC50 in assay [1] (mean ± SEM) of 148 ± 5 µM. Further, the Type of inhibition result in assay [2] is given as “competitive inhibitors; also recorded: competitive inhibition”. Besides, the Vmax in assay [2] (± SD (jackknife)) was found to be 12.0 ± 0.6 µmol/min. Also, the Ki turned out to be 132 ± 15 µM in assay [2] (setting [5]) and 132 µM in assay [2] (setting [7]). Also, the “V max (Solver fit)” value in assay [2] (setting [6]) was 40,026555.
Take `O=c1cc(-c2ccc(O)c(O)c2)oc2cc(O)ccc12` [C6]: the IC50 in assay [1] (mean ± SEM) is 131 ± 1 µM.
